The record followed here is paper PMC6222715, “Squalene Cyclases and Cycloartenol Synthases from Polystichum polyblepharum and Six Allied Ferns” (Molecules : A Journal of Synthetic Chemistry and Natural …, 2018).

The target in the assay is PPH (Polystichum polyblepharum, UniProt A0A3G9ELI1). The experiment in a line: product formation in yeast cells, GC. In kind it is cell-based. The settings on record: endogenous squalene accumulated with terbinafine; in vivo; phosphate pH 7.0.
Sequence of PPH (A0A3G9ELI1 1-685): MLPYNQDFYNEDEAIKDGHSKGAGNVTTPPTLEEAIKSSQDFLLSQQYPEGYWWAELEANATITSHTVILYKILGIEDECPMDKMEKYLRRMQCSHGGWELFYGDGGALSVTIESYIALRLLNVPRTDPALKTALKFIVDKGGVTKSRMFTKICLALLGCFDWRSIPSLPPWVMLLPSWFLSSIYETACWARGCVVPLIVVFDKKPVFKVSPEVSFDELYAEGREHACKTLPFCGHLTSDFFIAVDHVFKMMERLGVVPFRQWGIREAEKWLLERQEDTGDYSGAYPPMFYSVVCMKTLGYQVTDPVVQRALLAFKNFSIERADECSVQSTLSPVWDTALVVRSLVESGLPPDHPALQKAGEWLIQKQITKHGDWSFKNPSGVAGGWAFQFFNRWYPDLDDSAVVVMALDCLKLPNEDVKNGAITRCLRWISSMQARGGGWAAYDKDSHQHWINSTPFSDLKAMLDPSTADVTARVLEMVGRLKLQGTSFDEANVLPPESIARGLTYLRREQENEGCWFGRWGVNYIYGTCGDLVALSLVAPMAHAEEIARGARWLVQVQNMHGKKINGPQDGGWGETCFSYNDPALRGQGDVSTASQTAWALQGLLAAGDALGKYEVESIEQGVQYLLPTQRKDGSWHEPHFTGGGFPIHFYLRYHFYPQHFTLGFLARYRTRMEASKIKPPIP

Turning to `CC(C)=CCC/C(C)=C/CC/C(C)=C/CC/C=C(\C)CC/C=C(\C)CCC=C(C)C` [compound 1, squalene], the “product formation in yeast cells, GC” value was “PPH could use the accumulated endogenous squalene as an in vivo substrate”.
